Experimental findings from ChEMBL document CHEMBL4739717, “Methods of treating cartilage disorders through inhibition of clk and dyrk” (2020) are described below.

Structures are written as SMILES. Active and inactive are the calls of the source. No cut-off for these calls is given here. Where only a bound is given, the exact number is not on record here.

A short description of assay [1]: Induction of chondrogenesis in human MSC assessed as incubated for 6 days by rhodamine B and Nile red staining based imaging analysis. It counts as functional. The settings on record: bmmsc.
Assay [2] in a line: Inhibition of IL1-beta induced MMP3 expression levels in human chondrocytes assessed as MMP3 levels incubated for 2hrs followed by IL1-beta stimulation and measured after overnight incubation by LANCE assay. It counts as functional, cell-based. The settings on record: Chondrocyte.
The nature of assay [3]: Induction of chondrogenesis in human MSC assessed as maximum activity at 2700 nM incubated for 6 days by rhodamine B and Nile red staining based imaging analysis relative to control. It is filed as functional. The settings on record: BMMSC, 144 h, time 6 day.
Assay [4] is described as follows: Effect on Wnt signaling pathway in human SW480 cells harbouring TCF/LEF luciferase reporter gene and SP5-Luc reporter gene incubated for 36 to 48 hrs by luminescence assay. It counts as cell-based.
The target in assay [5] is Dual specificity protein kinase CLK2 (Homo sapiens, UniProt P49760). Description: Inhibition of recombinant CLK2 (unknown origin) using Ser/Thr 6 peptide as substrate incubated for 1 hr in presence of ATP by FRET assay.
The target of assay [6] is Dual specificity tyrosine-phosphorylation-regulated kinase 1A (Homo sapiens, UniProt Q13627). Nature of the assay: Inhibition of recombinant DYRK1A (unknown origin) using Ser/Thr 18 peptide as substrate incubated for 1 hr in presence of ATP by FRET assay.
Assay [7] can be described thus: Induction of chondrogenesis in human MSC assessed as maximum activity at 300 nM incubated for 6 days by rhodamine B and Nile red staining based imaging analysis relative to control. It counts as functional. The note with it: BMMSC, 144 h, time 6 day.
The target of assay [8] is Dual specificity protein kinase CLK3 (Homo sapiens, UniProt P49761). Description: Inhibition of recombinant CLK3 (unknown origin) using Ser/Thr 18 peptide as substrate incubated for 1 hr in presence of ATP by FRET assay.
Assay [9] is described as follows: Inhibition of IL1-beta induced MMP3 expression levels in human chondrocytes assessed as MMP3 levels incubated for 2hrs followed by IL1-beta stimulation and measured after overnight incubation by LANCE assay relative to control. It counts as functional, Chondrocyte. A general note: Time-resolved FRET reads energy transfer from a long-lived donor to a nearby acceptor.

A short description of assay [10]: Induction of chondrogenesis in human MSC assessed as maximum activity at 10 nM incubated for 6 days by rhodamine B and Nile red staining based imaging analysis relative to control. It is filed as functional. The note with it: BMMSC, 144 h, time 6 day.
Assay [11] relates to Chondrocyte. Description: Inhibition of IL1-beta induced MMP-13 expression levels in human chondrocytes assessed as MMP-13 levels incubated for 2hrs followed by IL1-beta stimulation and measured after 24 hrs by qRT-PCR analysis. It counts as functional. The note with it: time 26.0 hrs. For orientation: Real-time PCR tracks product formation cycle by cycle.
Assay [12] is described as follows: Induction of chondrogenesis in human MSC assessed as maximum activity at 30 nM incubated for 6 days by rhodamine B and Nile red staining based imaging analysis relative to control. The note with it: BMMSC, 144 h, time 6 day. It is filed as functional.
Assay [13] concerns Chondrocyte. Description: Inhibition of IL1-beta induced MMP3 expression levels in human chondrocytes assessed as MMP3 levels incubated for 2hrs followed by IL1-beta stimulation and measured after 24 hrs by qRT-PCR analysis. It counts as functional. The settings on record: time 26.0 hrs.
Assay [14] in a line: Induction of chondrogenesis in human MSC assessed as maximum activity at 100 nM incubated for 6 days by rhodamine B and Nile red staining based imaging analysis relative to control. It is filed as functional. The note with it: BMMSC, 144 h, time 6 day.

Dual specificity protein kinase CLK2, sequence (P49760 whole entry): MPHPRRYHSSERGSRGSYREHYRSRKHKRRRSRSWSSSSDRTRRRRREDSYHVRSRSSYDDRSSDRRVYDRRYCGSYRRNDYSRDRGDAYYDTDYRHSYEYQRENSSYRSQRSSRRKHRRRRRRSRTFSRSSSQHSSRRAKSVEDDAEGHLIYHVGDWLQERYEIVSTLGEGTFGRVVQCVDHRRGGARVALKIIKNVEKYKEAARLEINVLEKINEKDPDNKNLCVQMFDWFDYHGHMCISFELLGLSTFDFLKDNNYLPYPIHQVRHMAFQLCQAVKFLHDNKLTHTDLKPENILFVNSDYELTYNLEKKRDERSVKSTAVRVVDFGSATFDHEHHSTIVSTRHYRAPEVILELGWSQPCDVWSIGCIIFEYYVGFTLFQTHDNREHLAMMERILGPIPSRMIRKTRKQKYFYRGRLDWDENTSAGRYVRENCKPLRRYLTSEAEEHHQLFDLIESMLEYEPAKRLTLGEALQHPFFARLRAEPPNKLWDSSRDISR
Dual specificity protein kinase CLK3, sequence (P49761 whole entry): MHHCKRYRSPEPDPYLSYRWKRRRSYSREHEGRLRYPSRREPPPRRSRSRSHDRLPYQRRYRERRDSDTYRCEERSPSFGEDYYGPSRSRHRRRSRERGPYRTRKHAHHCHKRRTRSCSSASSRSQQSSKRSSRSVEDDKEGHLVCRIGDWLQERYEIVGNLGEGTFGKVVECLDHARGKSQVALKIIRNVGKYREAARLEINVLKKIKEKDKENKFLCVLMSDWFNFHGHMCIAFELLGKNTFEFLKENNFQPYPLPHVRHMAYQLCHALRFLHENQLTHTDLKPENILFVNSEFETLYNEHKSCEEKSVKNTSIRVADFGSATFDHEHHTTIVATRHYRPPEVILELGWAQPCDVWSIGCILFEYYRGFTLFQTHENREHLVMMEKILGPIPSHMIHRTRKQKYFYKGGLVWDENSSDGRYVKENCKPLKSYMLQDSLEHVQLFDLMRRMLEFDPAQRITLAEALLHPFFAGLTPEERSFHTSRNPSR

The term EC50 denotes the concentration giving half of the maximal effect. What is called Emax is the size of the effect at its maximum, as opposed to the concentration needed. Consider `CC(C)NC(=O)c1n[nH]c2ccc(-c3cncc(CN4CCC(F)(F)CC4)c3)cc12`, for which the EC50 came to 2700 nM in assay [1], 8 nM in assay [2] and 47.1 nM in assay [4]. For the same molecule, the Emax at 2.7 µM in assay [3] was 104%.

In the case of `Cc1n[nH]c2ccc(-c3cncc(O[C@H]4CCNCC4(F)F)n3)cc12`, the EC50 in [1] came out at 300 nM; in [5] it was 3 nM; in assay [6], 2 nM; in assay [8], 313 nM; in assay [4], 227 nM. Further, in assay [7], the Emax at 0.3 µM came out at 82.1%.

For the molecule `CN1CCN(c2ccc(NC(=O)c3n[nH]c4ccc(-c5cncc(NC(=O)c6c(F)cccc6F)c5)cc34)cn2)CC1`, in [9], the Imax came out at 54.9%. Besides, the EC50 in [5] was 1 nM; in assay [6] it was 3 nM; in assay [2], 3000 nM; in assay [8] it was 81 nM; in assay [4], 226 nM.

`CN1CCN(c2nccc3[nH]c(-c4n[nH]c5ncc(-c6cncc(CN7CCCCC7)c6)cc45)cc23)CC1`: the EC50 in assay [5] is 9 nM; in assay [6], 11 nM; in assay [8], 1900 nM; in [4] it was greater than 10000 nM. For the same molecule, the Emax at 0.3 µM in [7] is 50.7%.

For `Cn1cncc1-c1ccc2cnc(NC(=O)c3ccc(F)cc3)cc2c1`, in assay [2], the EC50 was 3000 nM. In [3], the Emax at 2.7 µM stood at 24.9%.

In the case of `Cc1ccc(C(=O)Nc2c[nH]nc2C(=O)Nc2ccc(OCCN3CCCC3)nc2)cn1`, the Imax in assay [9] came out at 23.7%. Also, the EC50 in assay [5] amounted to 24 nM; in assay [6] it was 27 nM; in assay [2] it was 811 nM; in assay [8] it was 3700 nM; in assay [4], 119 nM.

Take `Cn1cc(-c2ccc3cnc(NC(=O)c4ccc5c(cnn5C)c4)cc3c2)cn1`: the Imax in [9] was determined as 46.9%. For the same molecule, the EC50 was 3 nM in assay [5], 3000 nM in assay [2] and 49 nM in [8].

As to `CN1CCN(c2cc(C(=O)Nc3cc4cc(-c5cnn(C)c5)ccc4cn3)ccn2)CC1`, the Emax at 0.01 µM in [10] is 27.1%. Moreover, the outcome with Chondrocyte [11] was inactive.

Consider `O=C(Nc1ccc(CN2CCCC2)cc1)c1n[nH]cc1/C=C/c1cccnc1`, for which the EC50 was determined as 900 nM in [1], 4 nM in assay [6], 3.7 nM in assay [2] and 988 nM in assay [4]. Also, in assay [3], the Emax at 2.7 µM is 194%.

Turning to `Cc1n[nH]c2ccc(-c3cncc(O[C@H]4CCNC[C@H]4F)n3)cc12`, the concentration giving a half-maximal response (EC50) in assay [1] was 30 nM; in assay [5], 5 nM; in assay [6] it was 21 nM; in [8] it was 1760 nM; in assay [4] it was 834 nM. Moreover, the Emax at 0.03 µM in [12] was found to be 54.2%.

`CN1CCN(c2cc(Nc3ncc4c(-c5ccc6ncccc6c5)c[nH]c4n3)ccn2)CC1`: the Emax at 0.01 µM in assay [10] turned out to be 73.4%. Further, the EC50 came to 30 nM in assay [1], 1 nM in [6], 9980 nM in assay [2] and 284 nM in assay [4]. Further, the outcome in the assay on Chondrocyte [13] and in the assay on Chondrocyte [11] was inactive.

In the case of `CN1CCCn2cc(nn2)-c2nccc3[nH]c(nc23)-c2n[nH]c3ccc(cc23)-c2cncc(c2)C1`, the Emax at 0.01 µM in [10] is 181%. Further, the EC50 in assay [1] worked out at 10 nM; in [6] it was 4 nM; in assay [2], 3780 nM; in assay [4] it was 338 nM. Moreover, the outcome in the assay with Chondrocyte [13] and with Chondrocyte [11] was inactive.

As to `CN1CCN(c2cc(CC(=O)Nc3cc4cc(-c5cnn(C)c5)ccc4cn3)ccn2)CC1`, in assay [9], the Imax is given as 100%. Further, the values for the EC50 in [5], in assay [2] and in [8] were 10 nM, 1060 nM and 78 nM, respectively.

On to `Cn1cc(-c2ccc3cnc(NC(=O)c4cnc5ccccc5c4)cc3c2)cn1`, for which, in assay [9], the Imax amounted to 41.2%. The EC50 in assay [5] worked out at 4 nM; in [2] it was 19.1 nM; in assay [8] it was 66 nM.

With `CCC(=O)Nc1cncc(-c2ccc3[nH]nc(-c4cc5c(N6CCCCC6)nccc5[nH]4)c3c2)c1`, the EC50 in assay [1] came out at 10 nM; in [5] it was 1 nM; in [6], 5 nM; in assay [8], 52 nM; in assay [4] it was 445 nM. For the same molecule, the Emax at 0.03 µM in assay [12] stood at 244%.

For `Cc1cn(-c2cncc3[nH]c(-c4n[nH]c5ccc(-c6cncc(NC(=O)C(C)(C)C)c6)nc45)nc23)cn1`, the EC50 is 100 nM in [1], 2 nM in assay [6], 1150 nM in assay [2] and greater than 10000 nM in assay [4]. The Emax at 2.7 µM in assay [3] stood at 150%.

For `Cc1nnc(-c2ccc3cnc(NC(=O)c4ccnc(C5=CCN(C)CC5)c4)cc3c2)s1`, the Imax in [9] amounted to 35.3%. Further, the EC50 in assay [5] was 2 nM; in assay [2], 143 nM; in assay [8], 14 nM.

Regarding `NC1CN(c2cncc(-c3ccc4[nH]nc(-c5nc6ccncc6[nH]5)c4c3)n2)C1`, the Imax in assay [9] came to 61.5%. Besides, the EC50 was found to be 1 nM in assay [5]; 3 nM in assay [6]; 20.8 nM in assay [2]; 182 nM in assay [8]; 344 nM in [4].

Regarding `Cc1n[nH]c2ccc(-c3cncc(O[C@H]4CCNC[C@@H]4F)n3)cc12`, the EC50 in assay [1] was found to be 100 nM; in assay [5] it was 1 nM; in [6], 11 nM; in assay [8], 1720 nM; in [4], 672 nM. Besides, in [14], the maximum response (Emax) at 0.1 µM turned out to be 44.9%.

In the case of `CC(C)Oc1cncc(C(=O)Nc2c[nH]nc2C(=O)Nc2ccc(OC3CCN(C)CC3)nc2)c1`, the half-maximal effective concentration (EC50) amounted to 2700 nM in assay [1], 4 nM in assay [6], 1.5 nM in assay [2] and 90.3 nM in assay [4]. The Emax at 2.7 µM in assay [3] was found to be 140%.

As to `CC(C)N1CCC(Oc2cc(C(=O)Nc3cc4cc(-c5cnn6c5CCNC6)ccc4cn3)ccn2)CC1`, the EC50 stood at 11 nM in assay [6] and 75.8 nM in assay [2]. Further, the outcome in the assay on Chondrocyte [13] was inactive.

Consider `CC(C)Nc1cncc(-c2ccc3[nH]nc(-c4nc5c(-c6cc(F)cc(NCCN(C)C)c6)cncc5[nH]4)c3n2)c1`, for which the EC50 was determined as 300 nM in assay [1], 9 nM in assay [6], 3000 nM in [2] and 1660 nM in [4]. For the same molecule, the Emax at 2.7 µM in assay [3] worked out at 96.8%.

For `O=C(Nc1ccc(N2CCC(F)(F)C2)nc1)c1n[nH]cc1C#Cc1cccnc1`, in assay [9], the Imax is 88.5%. Besides, the EC50 is 32 nM in [5]; 21 nM in assay [6]; 3000 nM in [2]; greater than 10000 nM in [8]; greater than 10000 nM in assay [4].

For `CN1CCN(c2nccc3[nH]c(-c4n[nH]cc4/C=C/c4cncc(F)c4)nc23)CC1`, the Emax at 0.01 µM in assay [10] is 39%. The EC50 in assay [6] amounted to 10 nM; in [2] it was 3000 nM; in [4] it was 325 nM. For the same molecule, the result in the assay with Chondrocyte [13] and in the assay with Chondrocyte [11] was inactive.

In the case of `CN1CCC(Oc2ccc(C(=O)Nc3cc4cc(-c5cnn(C)c5)ccc4cn3)cc2)CC1`, the Emax at 0.01 µM in [10] was 25.4%. In addition, the EC50 in assay [2] was found to be 3000 nM. The outcome in the assay with Chondrocyte [13] was inactive.

On to `O=C(Nc1cc2cc(-c3cncc(N[C@H]4CCNC[C@@H]4F)n3)ccc2cn1)C1CC1`, for which the EC50 in assay [1] turned out to be 2700 nM; in assay [5], 1 nM; in assay [2] it was 3000 nM; in assay [8] it was 11 nM; in assay [4], 9.5 nM. The Emax at 2.7 µM in [3] was found to be 68%.

With `Fc1cccc(-c2cncc3[nH]c(-c4n[nH]c5ncc(-c6cccnc6)cc45)nc23)c1`, the EC50 was determined as 100 nM in assay [1]; 5 nM in [5]; 12 nM in assay [6]; 48 nM in [8]; 6 nM in assay [4]. For the same molecule, the Emax at 0.3 µM in [7] is 157%.

Regarding `O=C(Nc1cncc(-c2ccc3[nH]nc(-c4cc5cnccc5[nH]4)c3c2)c1)C1CCCCC1`, the Imax in assay [9] was found to be 100%. Further, the EC50 in [1] turned out to be 30 nM; in assay [6], 2 nM; in [2], 6.7 nM; in assay [4], 285 nM. Further, in [3], the Emax at 2.7 µM was 155%.

For `C[C@@H]1CN(c2ccc(NC(=O)c3n[nH]c4ccc(-c5cncc(CN6CCCCC6)c5)cc34)cn2)C[C@H](C)O1`, the values for the EC50 in assay [1] and in assay [4] were 2700 nM and 2.8 nM, respectively. Moreover, in assay [3], the Emax at 2.7 µM came out at 129%.

For the molecule `Oc1cncc(-c2ccc3[nH]nc(-c4nc5c(-c6cccc(F)c6)ccnc5[nH]4)c3c2)c1`, the EC50 in assay [5] is 17 nM; in assay [6], 12 nM; in assay [8] it was 45 nM; in assay [4] it was 11 nM. Also, in [14], the Emax at 0.1 µM is 52.2%.
